Values after ≈ are worked out from the molar mass of the structure shown. Values joined by “and” are separate entries in the source; they are usually repeats but may differ in a detail not shown here. Identical values can stand only once. Counter-ions that a name gives are not always drawn. Like-named read-outs stand apart in the source and are kept apart here.
Columns and labels:
[1] = test system: 132 strains of Staphylococcus aureus (106 MRSA and 26 MSSA strains); assay: MIC50/MIC90 micro-broth dilution, all strains
S. aureus ATCC 43300 = assay: Anaerobic MIC micro-broth dilution; assay type: cell-based, Staphylococcus aureus
[2] = test system: Staphylococcus aureus ATCC 43300; assay: Broth MIC (Example 1); assay type: cell-based; settings: for MIC: Staphylococcus aureus
Procedure: (§1) The collaborator supplied sample as dry material. A stock solution at 10 mg/mL in neat DMSO (11.2 mg in 1.12 mL of DMSO) was prepared. The highest concentration tested in the assay was 128 μg/mL and 2% DMSO as a final concentration using 1/20 dilution to achieve these concentrations.

[3] = test system: S. aureus MRSA (106 strains); assay: MIC50/MIC90 micro-broth dilution, MRSA strains; assay type: cell-based, Staphylococcus aureus
[4] = test system: A. acidipropionici ATCC 25562; assay: Anaerobic MIC micro-broth dilution; assay type: cell-based, Acidipropionibacterium acidipropionici
[5] = test system: Staphylococcus aureus MRSA ATCC 43300 biofilm; assay: Biofilm minimum inhibitory concentration (Biofilm MIC), crystal violet OD590; assay type: cell-based; settings: two technical replicates, ≥70% inhibition OD590; for Biofilm MIC (TSB + 5% Gluc) 07/112/18: first biological replicate; for Biofilm MIC (TSB + 5% Gluc) 14/112/18: second biological replicate
Procedure: as §1
Bacteria (Staphylococcus aureus, ATCC 43300; MRSA) was cultured on Tryptic Soy Broth (TSB, BD, Cat. No. 211825) at 37° C. overnight, then it was diluted 1:100 in fresh TSB supplemented with 5% glucose. 100 μL were added across the 96-well of polystyrene (PS) (Corning; Cat. No. 3370) plate, leaving row H as media Control. Plates were incubated at 37° C. for 48 h to generate the biofilm. The plates were prepared in duplicate.
The antibiotic controls and CBD were serially diluted in TSB with 5% glucose two-fold across the wells of polystyrene (PS) 96-well plates (Corning; Cat. No. 3370), plated in duplicate. All plates had flat bottom wells and were covered with low-evaporation lids.
48 h after incubation, bacteria plates were carefully washed three times with 200 μL/well of saline solution (0.9% NaCl, Baxter Healthcare; Cat. No. AHF7124) using manual pipette to remove the planktonic cells but leave the biofilm adhered to the plate wells. Then, 100 μL of diluted controls and CBD were transferred into the washed plates containing the biofilm. Then, these plates were incubated at 37° C. for 24 h.
Next day, plates were washed three times with saline solution, then fixed with 100 μL/well of 99% methanol for 15 minutes. Once the biofilm was fixed, 100 μL/well 0.1% Crystal Violet Stain (Sigma; Cat No. C0775-25G) was added for 20 minutes and used as indicator of biofilm formation, followed by three times washing and dry well. To dissolve the crystal violet, 150 μL/well of methanol was added to allow for biofilm MIC analysis.
The biofilm formation was determined by optical density read at 590 nm (OD590). The percentage of biofilm formation was evaluated comparing the average, standard deviation and percentage of confidence of the media control (Row H) against the rest of the plate.
Analysis was performed using Microsoft Excel.

[6] = test system: S. aureus MSSA (26 strains); assay: MIC50/MIC90 micro-broth dilution, MSSA strains
P. acnes ATCC 6919 = assay: Anaerobic MIC micro-broth dilution; assay type: cell-based, Cutibacterium acnes (formerly Propionibacterium acnes)
C. granulosum ATCC 25564 = assay: Anaerobic MIC micro-broth dilution; assay type: cell-based, Cutibacterium granulosum; settings: Cutibacterium granulosum, ATCC25564, 48 h
[7] = test system: high-level mupirocin-resistant isolate 993; assay: MIC microtiter broth dilution (Example 9); assay type: cell-based; settings: Staphylococcus aureus; MRSA strain 993
Procedure: (§2) Strains used: ATCC 29213 (standard control), ATCC 43300, low-level mupirocin-resistant isolate 815, high-level mupirocin-resistant isolage 329, high-level mupirocin-resistant isolate 993.
(§3) All strains prepared as described in “Bacterial Preparation” section above with the following differences: inocula were prepared in Müller-Hinton broth (MHB) rather than RPMI, and were diluted 1:10,000 following wash for an inoculum concentration of ˜5×10^4 CFU/mL.
(§4) Using a multichannel pipet, 100 μL of MHB was added to each of the wells of the 96-well plates (round bottom/U-bottom). Stock solutions of antibiotic were prepared at 2× the highest assay concentration (mupirocin at 4096 μg/mL and CBD at 100 μg/mL). 100 μL of this broth was added to each of the broth-containing wells in column 1 of the plate, and mixed by pipetting the full volume 6-7 times, for a final concentration of 2048 μg/mL mupirocin or 50 μg/mL CBD. […]
(§5) 5 μL of each inoculum was added to the appropriate wells (various wells were left without inoculation and used to correct the absorbance of the CBD-containing wells and as negative controls). […] Plate was read by a plate reader at 600 nm.
(§6) Inhibition was determined to have occurred in the first well with a difference in OD600 of <0.05 from the uninfected wells with the same concentration of antimicrobial, provided inhibition growth continued through all higher concentrations. […]

[8] = test system: high-level mupirocin-resistant isolate 329; assay: MIC microtiter broth dilution (Example 9); assay type: cell-based; settings: Staphylococcus aureus; MRSA strain 329
Procedure: as §2, §3, §4, §5, §6

[9] = S. aureus ATCC 43300, anaerobic chamber, BHI, 48 h
[10] = A. acidipropionici ATCC 25562, anaerobic chamber, BHI, 48 h
[11] = ATCC43300, read-out: Broth MIC, TSB + 5% Glucose
[12] = ATCC43300, read-out: Broth MIC, CAMHB
[13] = Acidipropionibacterium acidipropionici, ATCC25562, 48 h
[14] = Cutibacterium acnes, ATCC6919, 48 h

| SMILES | MIC range ([1]; S. aureus spp. ALL) [mg/L] | Biofilm MIC (TSB + 5% Gluc) 07/112/18 [5] | Biofilm MIC (TSB + 5% Gluc) 14/112/18 [5] | MIC50 ([1]; Staphylococcus aureus) [mg/L] | MIC90 ([1]; Staphylococcus aureus) [mg/L] | MIC [2, 11] [mg/L] | MIC50 ([3]; Staphylococcus aureus, MRSA) [mg/L] | MIC90 ([3]; Staphylococcus aureus, MRSA) [mg/L] | MIC50 ([6]; Staphylococcus aureus, MSSA) [mg/L] | MIC90 ([6]; Staphylococcus aureus, MSSA) [mg/L] | MIC (C. granulosum ATCC 25564) [mg/L] | MIC [2, 12] [mg/L] | also measured |
| --- | --- | --- | --- | --- | --- | --- | --- | --- | --- | --- | --- | --- | --- |
| CCC[C@@H]1C[C@@H](C(=O)N[C@@H]([C@H]2O[C@H](SC)[C@H](O)[C@@H](O)[C@H]2O)[C@H](C)Cl)N(C)C1.Cl.O [Clindamycin, Clindamycin hydrochloride monohydrate] | 0.03 to 64 | >64 mg/L | >64 mg/L | – | – | – | – | – | – | – | – | – | MIC50 ([1]; S. aureus spp. ALL): 0.125 mg/L; MIC90 ([1]; S. aureus spp. ALL): 64 mg/L; MIC (S. aureus ATCC 43300; [9]): >32 µg/mL; Broth MIC ([2]; CAMHB): >64 mg/L; Broth MIC ([2]; TSB + 5% Glucose): >64 mg/L; MIC50 ([3]; S. aureus MRSA): 0.125 mg/L; MIC90 ([3]; S. aureus MRSA): 64 mg/L; MIC [4, 10]: 0.125 µg/mL; MIC50 ([6]; S. aureus MSSA): 0.125 mg/L; MIC90 ([6]; S. aureus MSSA): 0.1875 mg/L; MIC (P. acnes ATCC 6919; P. acnes ATCC 6919, anaerobic chamber, BHI, 48 h): 0.125 mg/L |
| CCCCCCCCCC(=O)N[C@@H](Cc1c[nH]c2ccccc12)C(=O)N[C@H](CC(N)=O)C(=O)N[C@@H](CC(=O)O)C(=O)N[C@@H]1C(=O)NCC(=O)N[C@@H](CCCN)C(=O)N[C@@H](CC(=O)O)C(=O)N[C@H](C)C(=O)N[C@@H](CC(=O)O)C(=O)NCC(=O)N[C@H](CO)C(=O)N[C@@H]([C@H](C)CC(=O)O)C(=O)N[C@@H](CC(=O)c2ccccc2N)C(=O)O[C@@H]1C [Daptomycin, reference compound] | 0.5 to 16 | 32 mg/L and 16 mg/L | 16 mg/L | 2 (≈ 1.23 µM) | 4 (≈ 2.47 µM) | 32 | 2 (≈ 1.23 µM) | 4 (≈ 2.47 µM) | 2 (≈ 1.23 µM) | 2 (≈ 1.23 µM) | – | – | – |
| CC[C@H]1OC(=O)[C@H](C)[C@@H](O[C@H]2C[C@@](C)(OC)[C@@H](O)[C@H](C)O2)[C@H](C)[C@@H](O[C@@H]2O[C@H](C)C[C@H](N(C)C)[C@H]2O)[C@](C)(O)C[C@@H](C)C(=O)[C@H](C)[C@@H](O)[C@]1(C)O [Erythromycin] | – | – | – | – | – | – | – | – | – | – | 0.125 (≈ 0.17 µM) | – | MIC (S. aureus ATCC 43300; Staphylococcus aureus, ATCC43300, 48 h): > 32 µg/mL; MIC [4, 10]: 4/2 |
| C/C(=C\C(=O)OCCCCCCCCC(=O)O)C[C@@H]1OC[C@H](C[C@@H]2O[C@H]2[C@@H](C)[C@H](C)O)[C@@H](O)[C@H]1O [Mupirocin] | 0.125 to 64 | 0.25 mg/L and 0.125 mg/L | 0.25 mg/L | 0.5 (≈ 0.999 µM) | 0.5 (≈ 0.999 µM) | 0.25 | 0.5 (≈ 0.999 µM) | 0.5 (≈ 0.999 µM) | 0.5 (≈ 0.999 µM) | 0.5 (≈ 0.999 µM) | > 32 | 0.25 (≈ 0.499 µM) | MIC [7]: 256 to 2050 mg/L (≈ 511 to 4090 µM); MIC [8]: 256 to 2050 mg/L (≈ 511 to 4090 µM); MIC [4, 13]: > 32 µg/mL; MIC (P. acnes ATCC 6919; [14]): > 32 mg/L |
| Cc1onc(-c2ccccc2)c1C(=O)N[C@@H]1C(=O)N2[C@@H]1SC(C)(C)[C@@H]2C(=O)O [Oxacillin sodium salt hydrate] | – | – | – | – | – | – | – | – | – | – | – | – | MIC (S. aureus ATCC 43300; [9]): 64/16/8; MIC [4, 13]: 2 µg/mL |
| COc1cc(Cc2cnc(N)nc2N)cc(OC)c1OC [Trimethoprim] | – | 8 mg/L | 16 mg/L and >64 mg/L | – | – | 4 | – | – | – | – | – | 1 (≈ 3.44 µM) | – |
| CN[C@H](CC(C)C)C(=O)N[C@H]1C(=O)N[C@@H](CC(N)=O)C(=O)N[C@H]2C(=O)N[C@H]3C(=O)N[C@H](C(=O)N[C@H](C(=O)O)c4cc(O)cc(O)c4-c4cc3ccc4O)[C@H](O)c3ccc(c(Cl)c3)Oc3cc2cc(c3O[C@@H]2O[C@H](CO)[C@@H](O)[C@H](O)[C@H]2O[C@H]2C[C@](C)(N)[C@H](O)[C@H](C)O2)Oc2ccc(cc2Cl)[C@H]1O [Vancomycin] | 0.5 to 64 | 4 mg/L | 4 mg/L | 1 (≈ 0.69 µM) | 2 (≈ 1.38 µM) | 1 | 1 (≈ 0.69 µM) | 2 (≈ 1.38 µM) | 1 (≈ 0.69 µM) | 1 (≈ 0.69 µM) | 0.25 (≈ 0.173 µM) | 0.5 (≈ 0.345 µM) | MIC (P. acnes ATCC 6919; [14]): 0.25 mg/L (≈ 0.173 µM) |

Source: patent publication US20220296535A1, “Antibacterial Dosage Regime Using Cannabinoids” (Botanix Pharmaceuticals Limited, priority 2019, published 2022)
